Experimental data as given in patent publication US12522596B2, “Compounds as GLP-1R agonists” (Terns Pharmaceuticals, Inc., priority 2021, dated 2026).

How the values were obtained:
[1] = Rat pharmacokinetics, oral dosing; type: in vivo, Sprague-Dawley rats; conditions: rat; for AUC(0-t) / Cmax / half-life: male, Sprague-Dawley, plasma, po, 3 mg/kg, rat plasma
Method: Oral dosing: Compounds were formulated at 0.3 mg/mL or 0.6 mg/mL in a solution comprising 5% polyethylene glycol 400 and 95% (12% (w/v) sulfobutyl-β-cyclodextrin in water) (v/v). Formulated compounds were administered to male, 7-11 week old Sprague-Dawley rats by oral gavage at a dose of 3 mg/kg.
Sample collection: Blood collections of about 0.2 mL per time point were performed from jugular vein or other suitable site of each animal, into pre-chilled commercial EDTA-K2 tubes and placed on wet ice until centrifugation. Blood samples were processed for plasma by centrifugation at approximately 4° C., 3,200 g for 10 min. Plasma was collected and transferred into pre-labeled 96 well plate or polypropylene tubes, quick frozen over dry ice and kept at −60° C. or lower until LC-MS/MS analysis.
Data analysis: Plasma concentration versus time data was plotted in graph and analyzed by non-compartmental approaches using the Phoenix WinNonlin 6.3 software program. Related PK parameters were calculated according to dosing route, e.g., CL, Vdss and C0 for intravenous administration, Cmax, Tmax or % F for extravascular administration, and T1/2, AUC(0-t), AUC(0-inf), MRT(0-t), MRT(0-inf) for all routes.

human GLP-1R receptor = target: T1, human GLP-1R receptor (Homo sapiens, UniProt P43220); assay: GLP-1R low expression cell assay (cAMP TR-FRET, CHO-K1_hGLP-1Rlow_clone10); type: cell-based; conditions: CHO-K1_hGLP-1Rlow_clone10 cells
T1 construct: expressed in transfected cells
T1 sequence (P43220 24-463): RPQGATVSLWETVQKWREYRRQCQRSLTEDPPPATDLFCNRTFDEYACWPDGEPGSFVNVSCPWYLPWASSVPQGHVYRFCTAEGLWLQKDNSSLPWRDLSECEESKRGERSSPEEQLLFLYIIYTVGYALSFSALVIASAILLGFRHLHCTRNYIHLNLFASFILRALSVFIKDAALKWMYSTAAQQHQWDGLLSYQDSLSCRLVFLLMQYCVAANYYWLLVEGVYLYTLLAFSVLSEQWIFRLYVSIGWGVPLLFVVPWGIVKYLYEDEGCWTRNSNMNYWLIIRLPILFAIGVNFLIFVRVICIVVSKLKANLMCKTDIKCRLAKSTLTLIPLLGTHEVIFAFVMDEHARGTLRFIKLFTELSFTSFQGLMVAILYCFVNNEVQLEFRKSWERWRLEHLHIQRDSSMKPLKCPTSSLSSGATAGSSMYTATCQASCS
Method: Stable cell lines expressing high and low GLP-1R surface expression were generated in CHO-K1 cells transfected (Fugene 6) with a puromycin selectable DNA plasmid encoding human GLP-1R receptor (accession number: NM_002062.5) under control of an EF1A promoter. Transfected cells were seeded into 24-well plates (9,000 cells/well) containing complete medium and incubated in a humidified incubator at 37° C. with 5% carbon dioxide. After overnight incubation, medium was replaced with complete medium supplemented with puromycin (6 μg/mL) and refreshed every 2-3 days to select for stably transfected cells. Individual pools of selected cells were expanded prior to analysis for responsiveness to GLP-1 control peptide using a TR-FRET assay to detect cAMP (LANCE Ultra CAMP Assay, Perkin Elmer). Briefly, cells were collected in Versene solution, plated in 384-well plates (1,000 cells/well) and combined with serially diluted GLP-1R control peptide (10 nL) using an acoustic dispenser (ECHO). Plates were incubated for 30 minutes at 25° C. prior to the addition of EU-CAMP tracer (5 μL) and Ulight-anti-cAMP (5 μL) reagents to each well, followed by 15 minutes incubation at 25° C. TR-FRET signal was detected using an En Vision Multimode Plate Reader (excitation=320 nm; emission=615 and 655 nm). Dose-response curves were used to generate EC50 values as a measure of responsiveness to the GLP-1R control peptide. Selected cell lines were monitored for responsiveness over multiple passages to ensure stability. […] Briefly, GLP-1R expression was analyzed by flow cytometry using a fluorescein-labeled Exendin-4 peptide fluorescent probe (FLEX). Cells were harvested in Versene solution and washed 3-times with PBS+0.5% BSA before incubation with FLEX reagent (10 μM) for 2 hours at room temperature. After incubation, cells were washed 3-times in PBS+0.5% BSA before final resuspension in PBS prior to analysis by flow cytometry to measure FLEX mean fluorescence intensity (MFI) as a measure of GLP-1R expression on the cell surface.
For compound testing in the CHO-K1_hGLP-1Rlow_clone10 cell line, cells were seeded in 384-well plates (1,000 cells/well). Test compounds were serially diluted in DMSO (10-point, 3-fold dilution), added to wells using an ECHO dispenser (10 nL/well) and plates were centrifuged for 1 min and agitated for 2 min at room temperature prior to 30-minute incubation at 25° C. After incubation, Eu-CAMP (5 μL) and Ulight-anti-cAMP (5 μL) reagents were added to each well, followed by centrifugation for 1 minute, agitation for 2 minutes at room temperature, and final incubation of the plates at 25° C. for 15 minutes. Plates were read using an EnVision microplate reader (excitation=320 nm; emission=615 and 655 nm). Dose-response curves were generated from duplicate wells based on percent activation calculated relative to a control GLP-1 peptide agonist that was run in parallel. EC50 values were determined by fitting percent activation as a function of compound concentration using the Hill equation (XLfit).
Stable cell lines expressing high and low GLP-1R surface expression were generated in CHO-K1 cells transfected (Fugene 6) with a puromycin selectable DNA plasmid encoding human GLP-1R receptor (accession number: NM_002062.5) under control of an EF1A promoter. Transfected cells were seeded into 24-well plates (9,000 cells/well) containing complete medium and incubated in a humidified incubator at 37° C. with 5% carbon dioxide. After overnight incubation, medium was replaced with complete medium supplemented with puromycin (6 μg/mL) and refreshed every 2-3 days to select for stably transfected cells. Individual pools of selected cells were expanded prior to analysis for responsiveness to GLP-1 control peptide using a TR-FRET assay to detect cAMP (LANCE Ultra CAMP Assay, Perkin Elmer).

Q: With `N#Cc1ccc(COc2cccc(C3CCN(Cc4nc5ccc(C(=O)O)cc5n4Cc4cncs4)CC3)n2)c(F)c1` [Compound 2] as the compound, how does the AUC(0-t) ([1]; 3 mg/kg PO (0.3 mg/mL)) read?
A: The AUC(0-t) was 384 ± 182 ng·h/mL.

Q: What about the Cmax ([1]; 3 mg/kg PO (0.3 mg/mL)) of the same compound?
A: The Cmax was 117 ± 61 ng/mL.

Q: And the half-life ([1]; 3 mg/kg PO (0.3 mg/mL))?
A: Its half-life is 3.3 ± 0.44 h.

Q: What about the AUC(0-t) ([1]; 3 mg/kg PO (0.6 mg/mL)) of the same compound?
A: The AUC(0-t) was 525 ± 138 ng·h/mL.

Q: And the Cmax ([1]; 3 mg/kg PO (0.6 mg/mL))?
A: The Cmax was 491 ± 256 ng/mL.

Q: And the half-life ([1]; 3 mg/kg PO (0.6 mg/mL))?
A: Its half-life is 2.66 ± 1.74 h.

Q: What about the “PK properties relative to Reference Compound A” value ([1]; dosed orally) of the same compound?
A: The value was “significantly enhanced PK properties”.

Q: And the “higher AUC relative to Reference Compound A” value ([1]; oral administration)?
A: Its value is 4-6 fold.

Q: What about the EC50 (human GLP-1R receptor) of the same compound?
A: Its EC50 is 3.1 nM.

Q: With `Cc1ncsc1Cn1c(CN2CCC(c3cccc(OCc4ccc(C#N)cc4F)n3)CC2)nc2ccc(C(=O)O)cc21` [Compound 4] as the compound, how does the AUC(0-t) ([1]; 3 mg/kg PO (0.3 mg/mL)) read?
A: Its AUC(0-t) is 28.3 ± 21.7 ng·h/mL.

Q: And the Cmax ([1]; 3 mg/kg PO (0.3 mg/mL))?
A: The Cmax was 21.6 ± 9.8 ng/mL.

Q: And the half-life ([1]; 3 mg/kg PO (0.3 mg/mL))?
A: The half-life was 0.96 ± 0.33 h.

Q: What about the EC50 (human GLP-1R receptor) of the same compound?
A: The EC50 was 2.5 nM.

Q: For `N#Cc1ccc(COc2ccnc(C3CCN(Cc4nc5ccc(C(=O)O)cc5n4Cc4cncs4)CC3)n2)c(F)c1` [Compound 20], which EC50 (human GLP-1R receptor) is on record?
A: The EC50 was 9.4 nM.

Q: With `N#Cc1ccc(COc2cccc(N3CCN(Cc4nc5ccc(C(=O)O)cc5n4Cc4cncs4)CC3)n2)c(F)c1` [Compound 30] as the compound, how does the EC50 (human GLP-1R receptor) read?
A: The EC50 was 1.7 nM.

Q: Which results are given for `N#Cc1ccc(COc2cccc(C3CCN(Cc4nc5ccc(C(=O)O)cc5n4C[C@@H]4CCO4)CC3)n2)c(F)c1` [Reference Compound A, reference compound]?
A: AUC(0-t) ([1]; 3 mg/kg PO (0.3 mg/mL)): 60.6 ± 9.01 ng·h/mL; Cmax ([1]; 3 mg/kg PO (0.3 mg/mL)): 37.7 ± 8.09 ng/mL; half-life ([1]; 3 mg/kg PO (0.3 mg/mL)): 2 ± 1.07 h; AUC(0-t) ([1]; 3 mg/kg PO (0.6 mg/mL)): 121 ± 36.9 ng·h/mL; Cmax ([1]; 3 mg/kg PO (0.6 mg/mL)): 102 ± 57 ng/mL; half-life ([1]; 3 mg/kg PO (0.6 mg/mL)): 1.68 ± 0.44 h

Q: Which EC50 (human GLP-1R receptor) does the source give for `CC1(c2ccc(C#N)cc2F)Oc2cccc(C3CCN(Cc4nc5ccc(C(=O)O)cc5n4Cc4cncs4)CC3)c2O1` (stereo not shown) [Compound 31] here?
A: Its EC50 is 0.6 nM.
